BindingDB's records for doi:10.7270/Q2SJ1J08 (University of Pittsburgh, 2007)
pIC50: −log10 of the molar value.

Target: T1, M-phase inducer phosphatase 2 (Homo sapiens, UniProt P30305)
T1 sequence (P30305 whole entry): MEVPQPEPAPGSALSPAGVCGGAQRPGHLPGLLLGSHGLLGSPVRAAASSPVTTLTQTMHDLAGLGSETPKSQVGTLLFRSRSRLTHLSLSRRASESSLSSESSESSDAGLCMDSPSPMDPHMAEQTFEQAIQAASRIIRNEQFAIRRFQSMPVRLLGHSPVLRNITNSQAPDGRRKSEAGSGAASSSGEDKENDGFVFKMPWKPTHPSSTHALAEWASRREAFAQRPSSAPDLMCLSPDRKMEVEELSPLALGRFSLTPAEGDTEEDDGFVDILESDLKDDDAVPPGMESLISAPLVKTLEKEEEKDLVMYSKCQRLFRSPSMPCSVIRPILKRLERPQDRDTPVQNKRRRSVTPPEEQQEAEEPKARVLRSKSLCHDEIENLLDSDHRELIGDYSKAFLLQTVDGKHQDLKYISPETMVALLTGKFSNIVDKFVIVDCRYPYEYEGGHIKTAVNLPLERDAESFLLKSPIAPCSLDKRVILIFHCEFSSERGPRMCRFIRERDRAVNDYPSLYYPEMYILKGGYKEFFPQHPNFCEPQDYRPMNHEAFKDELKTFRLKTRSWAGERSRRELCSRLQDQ
Test: Cdc25B catalytic domain inhibitors, dose response, biochemical, 25 mM DTT, catalase, probe assessment (AID 669)

Row | Structure (SMILES) | pIC50
1 | O=C(Nc1ccc2nc(-c3ccco3)c(-c3ccco3)nc2c1)N1CCCCCC1 | 4.39
2 | Cc1ccc2c(c1C)NC(C(=O)O)C1CC=CC21 (stereo not drawn) | 4.69
3 | O=C(O)C1Nc2c(O)cccc2C2C=CCC12 (stereo not drawn) | 4.80
4 | Cn1ncnc2c(=O)n(C)c(=O)nc1-2 | < 4.30
5 | [O-]/[N+](=C\c1ccncc1)c1ccccc1 | < 4.30
6 | COc1cccc2c(C)c(C(=O)O)[nH]c12 | 4.94
7 | O=C1C=Cc2ccccc2C1=O [1,2-dihydronaphthalene-1,2-dione] | < 4.30
8 | CCn1nc(-c2ccccc2)nc2c(=O)n(C)c(=O)nc1-2 [1-Ethyl-6-methyl-3-phenyl-1H-pyrimido[5,4-e][1,2,4]triazine-5,7-dione] | < 4.30
9 | [O-]/[N+](=C\c1ccc(OC(F)F)cc1)c1ccccc1 [1-[4-(difluoromethoxy)phenyl]-N-phenylmethanimine oxide] | < 4.30
10 | CCn1nc(-c2cccs2)nc2c(=O)n(C)c(=O)nc1-2 [1-ethyl-6-methyl-3-thiophen-2-yl-pyrimido[5,4-e][1,2,4]triazine-5,7-dione] | < 4.30
11 | O=C1Cc2ccccc2C(=O)N1CCc1ccccc1 [2-(2-phenylethyl)-4H-isoquinoline-1,3-dione] | < 4.30
12 | N#Cc1c(N)sc(=S)c2c1CCN(Cc1ccccc1)C2 [3-Amino-7-benzyl-1-thioxo-5,6,7,8-tetrahydro-1H-thiopyrano[3,4-c]pyridine-4-carbonitrile] | < 4.30
13 | Cc1ccccc1Nc1cc2ccccc2c(O)n1 [3-[(2-methylphenyl)amino]-2H-isoquinolin-1-one] | < 4.30
14 | COc1ccc(Br)cc1C=c1sc2nc(-c3ccco3)nn2c1=O [5-[(5-bromanyl-2-methoxy-phenyl)methylidene]-2-(furan-2-yl)-[1,3]thiazolo[3,2-b][1,2,4]triazol-6-one] | 4.78
15 | CC(=O)Nc1cc(OC(C)=O)c2nonc2c1OC(C)=O [Acetic acid 7-acetoxy-5-acetylamino-benzo[1,2,5]oxadiazol-4-yl ester] | < 4.30
16 | c1ccc(CSc2nnc(-c3ccco3)c(-c3ccco3)n2)cc1 [MLS-0029114.0001] | < 4.30
17 | Cc1ccc2c(c1)C1C=CCC1C(C(=O)O)N2 (stereo not drawn) [MLS-0067149.0001] | 4.92
18 | O=C(NC1(O)C(=O)c2ccccc2C1=O)c1ccccc1 [N-(2-hydroxy-1,3-dioxo-2-indenyl)benzamide] | < 4.30
19 | Nc1cccc2cnccc12 [isoquinolin-5-amine] | < 4.30

Further lines, results first:

Row | pIC50 | Structure (SMILES)
20 | < 4.30 | CCOC(=O)C(C(=O)OCC)c1cc(Br)c2noc3c2c1C(=O)c1ccccc1-3 [MLS000038842]
21 | < 4.30 | Oc1nc(Nc2ccccc2)cc2ccccc12 [MLS000043701]
22 | < 4.30 | O=C1C=Cc2ccccc2/C1=C/NC12CN3CCN(CN(C3)C1)C2 [MLS000071484]
23 | < 4.30 | Cc1c(N=c2c(=O)c3ccccc3c2=O)c(=O)n(-c2ccccc2)n1C [MLS000105950]
24 | < 4.30 | CCOc1ccc2noc3c2c1C(=O)c1ccccc1-3 [MLS000106837]
25 | < 4.30 | COc1ccc2noc3c2c1C(=O)c1ccccc1-3 [MLS000106874]
26 | 4.88 | COc1cccc2c1NC(C(=O)O)C1CC=CC21 (stereo not drawn) [SMR000009698]
27 | 5.06 | O=C(OC1CCCCC1)c1ccc2c(c1)C1C=CCC1C(C(=O)O)N2 (stereo not drawn) [SMR000019385]
28 | < 4.30 | N#Cc1c(N2CCCC2)nc(N)c2c(N)nc(N3CCCC3)cc12 [SMR000061605]
